In patent US3991202A, “Imidazolium salts” (Janssen Pharmaceutica N.V., priority 1974, dated 1976) one finds MIC data, which are given here for 17 compounds.

Holding throughout (format): cell-based
Assay [1] has as its system Erysipelothrix insidiosa. The assay can be described thus: Antibacterial growth inhibition in phenol red dextrose broth. The note with it: Erysipelothrix rhusiopathiae, 168 h; E. ins.; tested at 100, 10, 1 μg/ml; read-out: Concentration in μ g for 100% Growth Inhibition. As to the method: (§1) The tests on bacteria were performed on cultures on phenol red dextrose broth medium (Difco). By using decimal dilution techniques described for the tests for antifungal activity, test media containing 100 μg, 10 μg and 1 μg of imidazolium salt per milliliter of medium were obtained. The inoculum consisted of a platinum loop (5 mm diameter) from a 24 hour broth culture. Forty-eight hours after incubation, subcultures were made from each culture for the determination of antibacterial activity of the imidazolium salts. After seven days of incubation, observations were made to determine the presence or absence of bacterial growth.

The test system of assay [2] is Escherichia coli. The description is as above. As to conditions: 168 h, E. coli, tested at 100, 10, 1 μg/ml, read-out: Concentration in μ g for 100% Growth Inhibition. As to the method:
as §1

The subject of assay [3] is Pseudomonas aeruginosa. Described as above. As to conditions: 168 h, Ps. aer., tested at 100, 10, 1 μg/ml, read-out: Concentration in μ g for 100% Growth Inhibition. As to the method:
as §1

Assay [4] relates to Salmonella pullorum gallinarum. Described as above. As to conditions: Salmonella enterica, 168 h; Sp. G.; tested at 100, 10, 1 μg/ml; read-out: Concentration in μ g for 100% Growth Inhibition. As to the method:
as §1

The subject of assay [5] is Staphylococcus hemolyticus. The assay is described as above. The note with it: 168 h, Staph., tested at 100, 10, 1 μg/ml, read-out: Concentration in μ g for 100% Growth Inhibition. As to the method: as §1
Assay [6] relates to Streptococcus pyogenes. The description is as above. As to conditions: 168 h, Strep., tested at 100, 10, 1 μg/ml, read-out: Concentration in μ g for 100% Growth Inhibition. As to the method:
as §1

Assay [7] has as its system Cryptococcus neoformans. The assay can be described thus: Antifungal growth inhibition in Sabouraud's liquid medium. The note with it: Cryptococcus neoformans, 336 h; Cr.n.; tested at 100, 10, 1 μg/ml; read-out: Concentrations in μg/ml for 100% Inhibition of Growth. As to the method:
(§2) Tests for the control of fungal organisms were performed using Sabouraud's liquid medium (1 g. of neopeptone Difco and 2 g. of glucose Difco per 100 ml. distilled water) in test tubes, each containing 4.5 ml. of liquid medium, autoclaved at 120° C for 15 minutes. The imidazolium salts were prepared for testing by dissolving in 50% ethanol to a concentration of 20 mg./ml. and thereafter diluting with sterile distilled water to obtain a concentration of 10 mg./ml. Successive decimal dilutions were then made with sterile distilled water to prepare a series of test solutions. In carrying out the test, 0.5 ml. of one of the test solutions is added to 4.5 ml. of Sabouraud's liquid medium to obtain a test medium. In this manner, from appropriate test solution, test media containing 100 μg, 10 μg and 1 μg of imidazolium salt per milliliter of medium were obtained.
(§3) Control tubes were prepared by adding 0.5 ml. of sterile distilled water to 4.5 ml. of medium. Ethanol was also added to simulate the amount which would be present in the test media. Filamentous fungi were incubated at 25° C for two to three weeks. A square block of side 2 mm. was excised and inoculated into the liquid medium. A 3-day old culture on Sabouraud's liquid medium was used for yeasts. The inoculum was 0.05 ml. per tube. All cultures were incubated at 25° C for 14 days.

For assay [8], the system named is Ctenomyces mentagrophytes. Described as above. As to conditions: Trichophyton mentagrophytes, 336 h; Ct.m.; tested at 100, 10, 1 μg/ml; read-out: Concentrations in μg/ml for 100% Inhibition of Growth. As for the experimental part:
as §2, §3

The test system of assay [9] is Microsporum canis. The assay is described as above. As to conditions: Microsporum canis, 336 h; M.c.; tested at 100, 10, 1 μg/ml; read-out: Concentrations in μg/ml for 100% Inhibition of Growth. As to the method: as §2, §3
The subject of assay [10] is Trichophyton rubrum. Described as above. The note with it: Trichophyton rubrum, 336 h; Tr.r.; tested at 100, 10, 1 μg/ml; read-out: Concentrations in μg/ml for 100% Inhibition of Growth. As to the method: as §2, §3

In the case of `Fc1ccc(C(c2ccccc2)[n+]2ccn(CC(OCc3ccc(Cl)cc3Cl)c3ccc(Cl)cc3Cl)c2)cc1` (stereo not shown), the MIC in [1] came to 1 µg/mL; in [2], 10 µg/mL; in assay [3], 100 µg/mL; in assay [4] it was 10 µg/mL; in assay [5], 1 µg/mL; in assay [6] it was 1 µg/mL.
Take `Clc1ccc(Cn2cc[n+](CC(OCc3c(Cl)cccc3Cl)c3ccc(Cl)cc3Cl)c2)c(Cl)c1.[Cl-]` (stereo not drawn) [1-(2,4-Dichlorobenzyl)-3-[2,4-dichloro-β-(2,6-dichlorobenzyloxy)phenethyl]imidazolium chloride]: the MIC in [1] amounted to 1 µg/mL; in [2], 10 µg/mL; in assay [3], 100 µg/mL; in assay [4], 10 µg/mL; in assay [5] it was 1 µg/mL; in assay [6] it was 1 µg/mL.
In the case of `Cc1ccccc1NC(=O)C[n+]1ccn(CC(OCc2c(Cl)cccc2Cl)c2ccc(Cl)cc2Cl)c1` (stereo not drawn) [1-[2,4-dichloro-β-(2,6-dichlorobenzyloxy)phenethyl]-3-(N-o-tolylcarbamoylmethyl)imidazolium chloride], the MIC stood at 10 µg/mL in assay [1]; 100 µg/mL in [2]; 100 µg/mL in assay [3]; 10 µg/mL in assay [4]; 10 µg/mL in assay [5]; 1 µg/mL in assay [6].
Regarding `O=C(C[n+]1ccn(CC(OCc2c(Cl)cccc2Cl)c2ccc(Cl)cc2Cl)c1)Nc1ccc(F)cc1` (stereo not drawn) [1-[2,4-dichloro-β-(2,6-dichlorobenzyloxy)phenethyl]-3-[N-(p-fluorophenyl)carbamoylmethyl]imidazolium chloride], the MIC was determined as 1 µg/mL in assay [1]; 10 µg/mL in assay [2]; 100 µg/mL in assay [3]; 10 µg/mL in assay [4]; 1 µg/mL in [5]; 1 µg/mL in [6].
Take `COc1cccc(C(=O)C[n+]2ccn(CC(OCc3ccc(Cl)cc3Cl)c3ccc(Cl)cc3Cl)c2)c1.[Br-]` (stereo not drawn) [CH2COC6H4mOCH3, 1-[2,4-dichloro-β-(2,4-dichlorobenzyloxy)phenethyl]-3-(m-methoxyphenacyl)imidazolium bromide]: the MIC in assay [7] was determined as 10 µg/mL; in assay [8] it was 1 µg/mL; in assay [9], 10 µg/mL; in [10], 1 µg/mL.
As to `COc1ccc(C(=O)C[n+]2ccn(CC(OCc3ccc(Cl)cc3Cl)c3ccc(Cl)cc3Cl)c2)cc1.[Br-]` (stereo not drawn) [CH2COC6H4p(OCH3), 1-[2,4-Dichloro-β-(2,4-dichlorobenzyloxy)phenethyl]-3-(p-methoxyphenacyl)imidazolium bromide], the MIC in assay [7] turned out to be 10 µg/mL; in [8] it was 10 µg/mL; in assay [9], 10 µg/mL; in assay [10], 1 µg/mL.
On to `O=C(Cn1cc[n+](CC(OCc2ccc(Cl)cc2Cl)c2ccc(Cl)cc2Cl)c1)c1ccc(Br)cc1.[Cl-]` (stereo not drawn) [CH2COC6H4pBr, 1-(p-bromobenzoylmethyl)-3-[2,4-dichloro-β-(2,4-dichlorobenzyloxy)phenethyl]imidazolium chloride], for which the MIC in assay [7] worked out at 1 µg/mL; in assay [8], 1 µg/mL; in [9], 10 µg/mL; in assay [10], 1 µg/mL.
Regarding `O=C(Cn1cc[n+](CC(OCc2ccc(Cl)cc2Cl)c2ccc(Cl)cc2Cl)c1)c1ccc(Cl)cc1.[Br-]` (stereo not drawn) [CH2COC6H4pCl, 1-(p-chlorobenzoylmethyl)-3-[2,4-dichloro-β-(2,4-dichlorobenzyloxy)phenethyl]imidazolium bromide], the MIC in assay [7], in [8], in [9] and in assay [10] was 1 µg/mL in each case.
As to `O=C(Cn1cc[n+](CC(OCc2ccc(Cl)cc2Cl)c2ccc(Cl)cc2Cl)c1)c1ccc(Cl)cc1Cl.[Cl-]` (stereo not drawn) [CH2COC6H32,4(Cl)2, 1-(2,4-dichlorobenzoylmethyl)-3-[2,4-dichloro-β-(2,4-dichlorobenzyloxy)phenethyl]imidazolium chloride], the MIC in assay [7] was 1 µg/mL; in assay [8], 1 µg/mL; in assay [9] it was 10 µg/mL; in [10], 1 µg/mL.
In the case of `COc1cccc(NC(=O)C[n+]2ccn(CC(OCc3ccc(Cl)cc3Cl)c3ccc(Cl)cc3Cl)c2)c1` (stereo not shown) [CH2CONHC6H4m(OCH3), hydrate], the MIC was determined as 10 µg/mL in [7], 10 µg/mL in assay [8], 10 µg/mL in assay [9] and 1 µg/mL in assay [10].
On to `O=C(C[n+]1ccn(CC(OCc2ccc(Cl)cc2Cl)c2ccc(Cl)cc2Cl)c1)Nc1ccccc1Cl` (stereo not drawn) [CH2CONHC6H4oCl, 1-[N-(o-chlorophenyl)carbamoylmethyl]-3-[2,4-dichloro-β-(2,4-dichlorobenzyloxy)phenethyl]imidazolium chloride], for which the MIC in [7] turned out to be 10 µg/mL; in [8], 10 µg/mL; in [9], 10 µg/mL; in [10] it was 1 µg/mL.
Regarding `O=C(C[n+]1ccn(CC(OCc2ccc(Cl)cc2Cl)c2ccc(Cl)cc2Cl)c1)Nc1ccccc1Oc1ccccc1` (stereo not drawn) [CH2CONHC6H4oOPh, 1-[2,4-dichloro-β-(2,4-dichlorobenzyloxy)phenethyl]-3-[N-(o-phenoxyphenyl)carbamoylmethyl]imidazolium chloride hydrate], the MIC in [7] worked out at 100 µg/mL; in assay [8] it was 10 µg/mL; in assay [9] it was 1 µg/mL; in [10], 1 µg/mL.
`O=C(C[n+]1ccn(CC(OCc2ccc(Cl)cc2Cl)c2ccc(Cl)cc2Cl)c1)NCc1ccccc1Cl` (stereo not shown) [CH2CONHCH2C6H4oCl, 1-[N-(o-Chlorobenzyl)carbamoylmethyl]3-[2,4-dichloroβ-(2,4-dichlorobenzyloxy)phenethyl]imidazolium chloride]: the MIC in [7] was 100 µg/mL; in [8], 10 µg/mL; in [9], 1 µg/mL; in assay [10], 1 µg/mL.
In the case of `Fc1ccc(C(c2ccc(Cl)cc2)[n+]2ccn(CC(OCc3ccc(Cl)cc3Cl)c3ccc(Cl)cc3Cl)c2)cc1` (stereo not shown) [drawing 61], the MIC is 100 µg/mL in assay [7], 10 µg/mL in assay [8], 10 µg/mL in [9] and 1 µg/mL in assay [10].
Take `CCCCCCCC[n+]1ccn(CC(OCc2ccc(Cl)cc2Cl)c2ccc(Cl)cc2Cl)c1.[Br-]` (stereo not drawn) [nC8H17, 1-[2,4-dichloro-β-(2,4-dichlorobenzyloxy)phenethyl]3-n-octylimidazolium bromide]: the MIC in [7] was determined as 100 µg/mL; in assay [8] it was 10 µg/mL; in assay [9] it was 10 µg/mL; in assay [10] it was 1 µg/mL.
As for `O=C(C[n+]1ccn(CC(OCc2ccc(Cl)cc2)c2ccc(Cl)cc2)c1)c1ccc(F)cc1` (stereo not drawn) [pClC6H4/CH2C6H4pCl/CH2COC6H4pF, 1-[p-Chloro-β-(p-chlorobenzyloxy)phenethyl]-3-(p-flurophenacyl)imidazolium chloride], the MIC in [7], in assay [8], in [9] and in assay [10] was 10 µg/mL each time.
For the compound `O=C(C[n+]1ccn(CC(OCc2ccc(Cl)cc2Cl)c2ccc(Cl)cc2)c1)c1ccc(F)cc1.[Cl-]` (stereo not drawn) [pClC6H4/CH2C6H32,4(Cl)2/CH2COC6H4pF, 1-[p-chloro-β-(2,4-dichlorobenzyloxy)phenethyl]-3-(p-fluorophenacyl)imidazolium chloride], the MIC in assay [7], in assay [8], in [9] and in assay [10] was 10 µg/mL each time.
